Experimental data from patent publication US20170314074A1, “LPA-ASSOCIATED PROTEIN AND RNA EXPRESSION” (Intermune, Inc., priority 2014, published 2017).

Legend:
[1] = tested on: normal human lung fibroblasts; assay: mRNA expression after LPA induction, Affymetrix Human Gene ST arrays, fibroblasts (Table 4A); format: cell-based; conditions: fibroblasts; 1 μM LPA; average of 3 experiments
Procedure: (§1) Changes in gene expression after 3 hours of LPA induction were profiled on Affymetrix Human Gene ST 2.0 microarrays; differentially expressed genes identified by ANOVA with FDR <0.05 and fold-change >1.2. Process networks associated with differentially expressed genes were defined using MetaCore. Changes in secreted protein expression after 24 hours of LPA induction were profiled on an aptamer-based proteomic platform (1129 proteins); differentially expressed proteins identified by t-test.
(§2) Total RNA was isolated from normal human lung fibroblasts, human bronchial epithelial cells, and human pulmonary alveolar epithelial cells treated for […] with LPA and/or LPAR1 inhibitor. Each treatment condition was assayed in triplicate. Samples were profiled on Affymetrix Human Gene ST Arrays 1.0 and/or 2.0 after preparation using the Ambion WT Expression Kit according to manufacturers' instructions.
(§3) Data normalization and all subsequent analyses were performed in Partek Genomics Suite (Partek, St. Louis, Mo.). Data were normalized using the Robust Multi-array Average (RMA) algorithm. Differentially expressed genes were identified by ANOVA with correction for multiple comparisons with p-value with FDR<0.05. A fold-change cut-off was not strictly applied, although the majority of the differentially expressed genes identified have fold-changes greater than 1.2. Genes were included if they were statistically significant for (1) LPA-induction and (2) response to treatment with an LPAR1 inhibitor.
In Tables 1-5 The differentially expressed secreted proteins set forth in Tables 1, 2, and 5 and the differentially expressed mRNAs set forth in Table 3 and 4 were identified by visual inspection of individual dot-plots.
For the gene and protein expression analysis primary fibroblasts (NHLF product #CC-2512 from Lonza group LTD) and primary epithelial cells (NHBE Product #CC-2540 from Lonza; HPAEpiC Product #3200 from Sciencell (USA, California)) were cultured as recommended by the manufacturer, except they were cultured on collagen coated plates. As part of the induction protocol cells were starved overnight in low (0.2 or 0.1% serum) or no serum (0%), prior to stimulation with LPA.

[2] = tested on: fibroblasts and/or epithelial cells; assay: mRNA expression after LPA induction, Affymetrix Human Gene ST arrays, fibroblasts and/or epithelial cells (Table 3); format: cell-based
Procedure: as §1, §2
as §3, with “Genes were included if they were statistically significant for (1) LPA-induction and (2) response to treatment with an LPAR1 inhibitor.” left out

lysophosphatidic acid [LPA]
Effect of 1 μM LPA (fold-change), BIRC3 mRNA [1]: 3.17 fold-change | Effect of 1 μM LPA (fold-change), CHIC2 mRNA [1]: 2.36 fold-change | Effect of 1 μM LPA (fold-change), CNST mRNA [1]: 2.26 fold-change | Effect of 1 μM LPA (fold-change), CTGF mRNA [1]: 4.71 fold-change | Effect of 1 μM LPA (fold-change), CYR61 mRNA [1]: 6.52 fold-change | Effect of 1 μM LPA (fold-change), DKK1 mRNA [1]: 6.36 fold-change | Effect of 1 μM LPA (fold-change), DUSP1 mRNA [1]: 2.76 fold-change | Effect of 1 μM LPA (fold-change), EFNB2 mRNA [1]: 2.61 fold-change | Effect of 1 μM LPA (fold-change), GPR37 mRNA [1]: 2.80 fold-change | Effect of 1 μM LPA (fold-change), HAS2 mRNA [1]: 2.61 fold-change | Effect of 1 μM LPA (fold-change), HBEGF mRNA [1]: 5.11 fold-change | Effect of 1 μM LPA (fold-change), IER3 mRNA [1]: 2.94 fold-change | Effect of 1 μM LPA (fold-change), IL6 mRNA [1]: 4.19 fold-change | Effect of 1 μM LPA (fold-change), KPRP mRNA [1]: 4.31 fold-change | Effect of 1 μM LPA (fold-change), KRTAP1-5 mRNA [1]: 6.49 fold-change | Effect of 1 μM LPA (fold-change), KRTAP4-12 mRNA [1]: 3.23 fold-change | Effect of 1 μM LPA (fold-change), LIF mRNA [1]: 5.15 fold-change | Effect of 1 μM LPA (fold-change), MCP-1/CCL2 mRNA [1]: 5.58 fold-change | Effect of 1 μM LPA (fold-change), MIR218-1 [1]: 3.07 fold-change | Effect of 1 μM LPA (fold-change), PAI-1 mRNA [1]: 2.28 fold-change | Effect of 1 μM LPA (fold-change), PDCD1LG2 mRNA [1]: 2.52 fold-change | Effect of 1 μM LPA (fold-change), PTX3 mRNA [1]: 2.34 fold-change | Effect of 1 μM LPA (fold-change), SERPINB2 mRNA [1]: 2.44 fold-change | Effect of 1 μM LPA (fold-change), TNFAIP3 mRNA [1]: 3.44 fold-change | Effect of 1 μM LPA (fold-change), TXNIP mRNA [1]: −3.79 fold-change | Effect of 1 μM LPA (fold-change), UGCG mRNA [1]: 2.41 fold-change | Effect of 1 μM LPA (fold-change), VGLL3 mRNA [1]: 2.96 fold-change | changes in gene expression induced by LPA [2]: induced significant changes in gene expression
